Consider one compound from patent EP1683514B1, “Process for the preparation of concentrated suspensions of drugs and kit thereof” (Eratech S.r.l., priority 2005, dated 2006).

Data set [1] is described as follows: Purity test after β or γ irradiation (degradation of the pharmaceutical substance). The format is physicochemical. Conditions: powder. How it is done: A test of microbial count was then carried out on the irradiated suspensions to determine if a satisfactory sterility was achieved. A purity test was also carried out to determine if any degradation of the pharmaceutical substance budesonide was provoked by the irradiation treatment. As a comparison, a test of microbial count and purity was carrier out also on a sample of micronized budesonide powder. A test of microbial count was then carried out on the irradiated suspensions to determine if a satisfactory sterility was achieved. A purity test was also carried out to determine if any degradation of the pharmaceutical substance BDP was provoked by the irradiation treatment. As a comparison, a test of microbial count and purity was carrier out also on a sample of micronized BDP powder.

Data set [2] can be described thus: Particle size distribution of the micronized powder. The format is physicochemical. How it is done:
Micronized Beclomethasone Dipropionate (BDP) powder was added slowly under stirring the solution so obtained. The micronized powder had the following particle size distribution: d(0.1) 0.44 µm, d(0.5) 1.13 µm e d(0.9) 2.42 µm.
Micronized Budesonide powder was added slowly under stirring the solution so obtained. The micronized powder had the following particle size distribution: d(0.1) 0.50 µm, d(0.5) 1.39µm; d(0.9) 3.15 µm.
180 mg of BDP micronized powder were added to the solution so prepared. PSD of the powder was: d(0.1) 0.44 µm, d(0.5) 1.13 µm e d(0.9) 2.42 µm, namely the same PSD of the BDP powder used to prepare the concentrated suspensions of examples 1 - 4.

Consider `CCC(=O)OCC(=O)[C@@]1(OC(=O)CC)[C@@H](C)C[C@H]2[C@@H]3CCC4=CC(=O)C=C[C@]4(C)[C@@]3(Cl)[C@@H](O)C[C@@]21C` [BDP Powder, Beclomethasone Dipropionate], for which the Purity is given as 99.73% in data set [1] (BETA IRRADIATION 0 KGy); 99.73% in data set [1] (BETA IRRADIATION 2 KGy); 99.66% in data set [1] (BETA IRRADIATION 4 KGy); 99.67% in data set [1] (BETA IRRADIATION 6 KGy); 99.51% in data set [1] (BETA IRRADIATION 8 KGy); 99.49% in data set [1] (BETA IRRADIATION 10 KGy). Moreover, the Purity in data set [1] (GAMMA IRRADIATION 0 KGy) worked out at 99.73%; in data set [1] (GAMMA IRRADIATION 2 KGy) it was 99.73%; in data set [1] (GAMMA IRRADIATION 4 KGy) it was 99.68%; in data set [1] (GAMMA IRRADIATION 6 KGy) it was 99.70%; in data set [1] (GAMMA IRRADIATION 8 KGy), 99.07%. Further, the “particle size distribution d(0.1)” value in data set [2] came out at 0.44 µm. In data set [2], the “particle size distribution d(0.5)” value stood at 1.13 µm. Also, in data set [2], the “particle size distribution d(0.9)” value turned out to be 2.42 µm.
